Where two headings read alike, the source gives them in different places.
Columns and labels:
human TLR7 = human TLR7 (Homo sapiens (Human), UniProt Q9NYK1); test: TLR7 inhibition reporter assay (HEK-Blue SEAP); type: cell-based
human TLR8 = human TLR8 (Homo sapiens (Human), UniProt Q9NR97); test: TLR8 inhibition reporter assay (HEK-Blue SEAP); conditions: read-out: TLR8 IC50;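 note: SEAP driven by IFN-β minimal promoter carrying NF-κB and AP-1 sites, compounds dosed 0.05 nM to 50 µM for 22 h, inhibition scaled between agonist-plus-DMSO and reference-inhibitor wells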
human TLR8, sequence (Q9NR97 27-1041): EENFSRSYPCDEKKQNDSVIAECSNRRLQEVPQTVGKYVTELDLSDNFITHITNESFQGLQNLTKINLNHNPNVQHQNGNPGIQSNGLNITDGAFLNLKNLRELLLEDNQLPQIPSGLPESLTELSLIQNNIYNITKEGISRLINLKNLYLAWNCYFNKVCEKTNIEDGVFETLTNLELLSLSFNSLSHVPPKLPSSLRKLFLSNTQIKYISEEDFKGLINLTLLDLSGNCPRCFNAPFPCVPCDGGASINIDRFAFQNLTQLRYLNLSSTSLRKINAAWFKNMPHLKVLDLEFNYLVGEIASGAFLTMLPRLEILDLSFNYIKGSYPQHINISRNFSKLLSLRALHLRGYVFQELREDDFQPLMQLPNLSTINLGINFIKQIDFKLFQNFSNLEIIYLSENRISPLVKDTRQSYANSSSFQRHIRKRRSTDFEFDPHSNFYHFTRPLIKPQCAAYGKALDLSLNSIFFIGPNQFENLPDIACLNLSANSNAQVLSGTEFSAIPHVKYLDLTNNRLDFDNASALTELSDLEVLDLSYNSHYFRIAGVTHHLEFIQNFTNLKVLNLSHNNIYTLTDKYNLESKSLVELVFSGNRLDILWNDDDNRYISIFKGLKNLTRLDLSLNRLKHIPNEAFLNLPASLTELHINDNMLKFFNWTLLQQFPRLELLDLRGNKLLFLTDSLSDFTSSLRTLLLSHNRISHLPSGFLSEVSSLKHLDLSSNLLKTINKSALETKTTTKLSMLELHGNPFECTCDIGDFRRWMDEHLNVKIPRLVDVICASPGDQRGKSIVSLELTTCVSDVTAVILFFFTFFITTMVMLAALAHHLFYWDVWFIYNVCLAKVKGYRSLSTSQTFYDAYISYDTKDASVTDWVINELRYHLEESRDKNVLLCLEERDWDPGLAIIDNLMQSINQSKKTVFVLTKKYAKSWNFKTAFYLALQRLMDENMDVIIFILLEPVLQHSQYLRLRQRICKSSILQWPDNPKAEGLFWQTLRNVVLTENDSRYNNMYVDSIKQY

human TLR9 = human TLR9 (Homo sapiens (Human), UniProt Q9NR96); test: TLR9 inhibition reporter assay (HEK-Blue SEAP); conditions: read-out: TLR9 IC50;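 note: SEAP driven by an IFN-β minimal promoter with NF-κB and AP-1 sites, read after 22 h, compounds dosed 0.05 nM–50 µM, inhibition scaled between agonist plus DMSO and reference-inhibitor wells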
human TLR9, sequence (Q9NR96 26-1032): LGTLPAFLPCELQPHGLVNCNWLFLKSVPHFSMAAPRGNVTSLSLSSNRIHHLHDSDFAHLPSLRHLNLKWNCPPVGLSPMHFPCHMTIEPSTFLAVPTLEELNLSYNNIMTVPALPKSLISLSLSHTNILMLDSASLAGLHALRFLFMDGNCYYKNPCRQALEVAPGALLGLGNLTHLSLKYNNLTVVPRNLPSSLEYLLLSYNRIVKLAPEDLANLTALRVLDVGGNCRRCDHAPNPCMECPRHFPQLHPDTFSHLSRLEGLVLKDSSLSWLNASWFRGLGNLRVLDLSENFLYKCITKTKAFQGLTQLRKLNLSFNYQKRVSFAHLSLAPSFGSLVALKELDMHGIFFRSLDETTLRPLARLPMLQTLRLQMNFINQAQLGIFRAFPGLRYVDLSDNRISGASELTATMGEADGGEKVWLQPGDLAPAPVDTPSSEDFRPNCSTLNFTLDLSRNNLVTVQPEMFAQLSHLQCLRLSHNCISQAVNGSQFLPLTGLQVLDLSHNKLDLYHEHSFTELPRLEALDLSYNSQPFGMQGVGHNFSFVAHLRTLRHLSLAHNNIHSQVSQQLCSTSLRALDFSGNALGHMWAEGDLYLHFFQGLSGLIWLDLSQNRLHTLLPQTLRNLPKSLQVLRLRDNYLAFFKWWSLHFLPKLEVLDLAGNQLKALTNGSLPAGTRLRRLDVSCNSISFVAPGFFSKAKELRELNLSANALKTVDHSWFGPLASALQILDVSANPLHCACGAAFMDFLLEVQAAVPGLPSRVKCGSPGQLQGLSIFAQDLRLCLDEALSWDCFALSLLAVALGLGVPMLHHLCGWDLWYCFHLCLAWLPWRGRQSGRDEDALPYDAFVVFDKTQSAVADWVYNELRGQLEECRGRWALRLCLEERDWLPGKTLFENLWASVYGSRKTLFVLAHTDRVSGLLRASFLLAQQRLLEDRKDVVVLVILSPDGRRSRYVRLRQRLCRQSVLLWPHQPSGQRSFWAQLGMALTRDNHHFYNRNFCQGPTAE

[1] = HEK-Blue cells overexpressing human TLR7, gardiquimod 7.5 μM stimulation, SEAP reporter
[2] = HEK-Blue cells overexpressing human TLR8, R848 15.9 μM stimulation, SEAP reporter
[3] = HEK-Blue cells overexpressing human TLR9, ODN2006 5 nM stimulation, SEAP reporter
[4] = HEK-Blue human TLR7 cells, gardiquimod 7.5 μM
[5] = HEK-Blue human TLR8 cells, R848 15.9 μM
[6] = HEK-Blue human TLR9 cells, ODN2006 5 nM
[7] = HEK-Blue cells overexpressing human TLR7, SEAP reporter, gardiquimod 7.5 μM
[8] = HEK-Blue cells overexpressing human TLR8, SEAP reporter, R848 15.9 μM
[9] = HEK-Blue cells overexpressing human TLR9, SEAP reporter, ODN2006 5 nM

human TLR7, sequence (Q9NYK1 27-1049): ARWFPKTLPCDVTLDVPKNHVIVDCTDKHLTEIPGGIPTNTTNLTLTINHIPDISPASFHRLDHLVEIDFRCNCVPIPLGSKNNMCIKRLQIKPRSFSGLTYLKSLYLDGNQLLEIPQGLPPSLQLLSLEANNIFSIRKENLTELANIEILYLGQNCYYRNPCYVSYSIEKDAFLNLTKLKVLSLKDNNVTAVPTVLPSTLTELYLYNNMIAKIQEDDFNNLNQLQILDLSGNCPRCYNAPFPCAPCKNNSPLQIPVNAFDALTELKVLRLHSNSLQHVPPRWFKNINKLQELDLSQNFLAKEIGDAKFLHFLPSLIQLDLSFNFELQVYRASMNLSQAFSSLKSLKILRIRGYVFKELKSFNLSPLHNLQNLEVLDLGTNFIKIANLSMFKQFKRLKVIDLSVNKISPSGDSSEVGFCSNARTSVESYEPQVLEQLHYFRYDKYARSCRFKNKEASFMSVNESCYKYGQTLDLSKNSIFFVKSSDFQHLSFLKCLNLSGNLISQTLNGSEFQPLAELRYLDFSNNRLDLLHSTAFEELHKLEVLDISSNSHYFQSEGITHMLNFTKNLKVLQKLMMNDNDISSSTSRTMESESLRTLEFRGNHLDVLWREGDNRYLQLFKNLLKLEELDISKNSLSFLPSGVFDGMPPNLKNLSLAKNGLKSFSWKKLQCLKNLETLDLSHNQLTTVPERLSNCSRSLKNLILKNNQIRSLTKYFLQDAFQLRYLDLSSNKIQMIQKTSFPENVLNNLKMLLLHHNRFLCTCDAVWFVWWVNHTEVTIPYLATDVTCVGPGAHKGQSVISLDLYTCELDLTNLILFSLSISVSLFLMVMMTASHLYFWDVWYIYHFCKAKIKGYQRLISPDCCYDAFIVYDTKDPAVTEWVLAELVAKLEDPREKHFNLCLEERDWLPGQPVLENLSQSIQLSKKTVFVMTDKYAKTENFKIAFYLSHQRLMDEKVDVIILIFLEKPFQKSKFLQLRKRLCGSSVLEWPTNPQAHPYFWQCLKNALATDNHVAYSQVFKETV

SMILES	IC50 (human TLR7; [1])	IC50 (human TLR8; [2])	IC50 (human TLR9; [3])	IC50 (human TLR7; [7])	IC50 (human TLR8; [8])	IC50 (human TLR9; [9])	other results
Cc1c(-c2[nH]c3ccc(C4CCC(N5CCC(F)(F)CC5)CC4)nc3c2C(C)C)cn2ncnc2c1C (stereo not drawn) [Example 385]	22 nM	46 nM	11200 nM	–	–	–	–
Cc1c(-c2[nH]c3ccc(N4CCN(C(=O)CN5CCC5)C[C@@H]4C)nc3c2C(C)C)cn2ncnc2c1C [Example 824]	–	–	–	–	–	–	IC50 (human TLR7; [4]): 1.6 nM; IC50 (human TLR8; [5]): 2.1 nM; IC50 (human TLR9; [6]): 5790 nM
COc1cc(-c2[nH]c3ccc(C4CCC(N5CCCC5)CC4)nc3c2C(C)C)cn2ncnc12 (stereo not drawn) [Example 174]	4.3 nM	37 nM	1470 nM	–	–	–	–
CCCCN(CC)CC(=O)N1CCN(c2ccc3[nH]c(-c4cn5ncnc5c(C)c4C)c(C(C)C)c3n2)CC1 [Example 876]	–	–	–	–	–	–	IC50 (human TLR7; [4]): 644 nM; IC50 (human TLR8; [5]): 517 nM; IC50 (human TLR9; [6]): 13300 nM
Cc1c(-c2[nH]c3ccc(N4CCN(C(=O)CN5CCCC5)[C@H](C)C4)nc3c2C(C)C)cn2ncnc2c1C [Example 941]	–	–	–	–	–	–	IC50 (human TLR7; [4]): 0.66 nM; IC50 (human TLR8; [5]): 0.66 nM; IC50 (human TLR9; [6]): 7200 nM
COc1cc(-c2[nH]c3ccc(C4CCC(N5CCCC5)CC4)nc3c2C(C)C)cn2ncnc12 (stereo not drawn) [Example 199]	0.16 nM	6.4 nM	1190 nM	–	–	–	–
Cc1c(-c2[nH]c3ccc(N4CCN(C(=O)CN(C)C(C)(C)C)[C@@H](C)C4)nc3c2C(C)C)cn2ncnc2c1C [Example 904]	–	–	–	–	–	–	IC50 (human TLR7; [4]): 1 nM; IC50 (human TLR8; [5]): 4.2 nM; IC50 (human TLR9; [6]): 14800 nM
CCN(C)C1CCN(c2ccc3[nH]c(-c4cn5ncnc5c(C)c4C)c(C(C)C)c3n2)CC1 [Example 66]	1.4 nM	0.98 nM	3870 nM	–	–	–	–
Cc1c(-c2[nH]c3ccc(C4CCC(N5CCS(=O)(=O)CC5)CC4)nc3c2C(C)C)cn2ncnc2c1C (stereo not drawn) [Example 382]	7.8 nM	22 nM	> 50000 nM	–	–	–	–
Cc1c(-c2[nH]c3ccc(N4[C@@H]5CC[C@H]4CN(CCS(C)(=O)=O)C5)nc3c2C(C)C)cn2ncnc2c1C [Example 748]	–	–	–	7.5 nM	15 nM	37900 nM	–
Cc1c(-c2[nH]c3ccc(C4CCC(N(C)CC(=O)N(C)C)CC4)nc3c2C(C)C)cn2ncnc2c1C (stereo not drawn) [Example 368, 2-((4-(2-(7,8-dimethyl-[1,2,4]triazolo[1,5-a]pyridin-6-yl)-3-isopropyl-1H-pyrrolo[3,2-b]pyridin-5-yl)cyclohexyl)(methyl)amino)-N,N-dimethylacetamide]	1.5 nM	2.5 nM	1610 nM	–	–	–	–
COc1cc(-c2[nH]c3ccc(C4CCC(N5CC6(CCOC6)C5)CC4)nc3c2C(C)C)cn2ncnc12 (stereo not drawn) [Example 1069]	–	–	–	–	–	–	IC50 (human TLR7; [4]): 0.09 nM; IC50 (human TLR8; [5]): 0.17 nM; IC50 (human TLR9; [6]): 735 nM
Cc1c(-c2[nH]c3ccc(N4CCN(C(=O)CN5CC6(C5)CS(=O)(=O)C6)CC4)nc3c2C(C)C)cn2ncnc2c1C [Example 951]	–	–	–	–	–	–	IC50 (human TLR7; [4]): 6.5 nM; IC50 (human TLR8; [5]): 1.5 nM; IC50 (human TLR9; [6]): > 50000 nM
Cc1c(-c2[nH]c3ccc(C4CCC(N(C)C5COC5)CC4)nc3c2C(C)C)cn2ncnc2c1C (single isomer, unassigned) [Example 430, N-(4-(2-(7,8-dimethyl-[1,2,4]triazolo[1,5-a]pyridin-6-yl)-3-isopropyl-1H-pyrrolo[3,2-b]pyridin-5-yl)cyclohexyl)-N-methyloxetan-3-amine]	–	–	–	13 nM	14 nM	15100 nM	–
CCN(CC)C1CCC(c2ccc3[nH]c(-c4cn5ncnc5c(C)c4C)c(C(C)C)c3n2)CC1 (stereo not drawn) [Example 378]	1.6 nM	4.6 nM	1640 nM	–	–	–	–
Cc1c(-c2[nH]c3ccc(N4CCNC[C@H]4C)nc3c2C(C)C)cn2ncnc2c1C [Example 153]	0.87 nM	1.6 nM	7150 nM	–	–	–	–

SMILES	IC50 (human TLR7; [1])	IC50 (human TLR8; [2])	IC50 (human TLR9; [3])	IC50 (human TLR7; [7])	IC50 (human TLR8; [8])	IC50 (human TLR9; [9])	other results
CC(C)c1c(-c2cn(C)c3ncccc23)[nH]c2ccc(C3CCC(N4CC5(COC5)C4)CC3)nc12 (stereo not drawn) [Example 1036]	–	–	–	–	–	–	IC50 (human TLR7; [4]): 1.3 nM; IC50 (human TLR8; [5]): 2.7 nM; IC50 (human TLR9; [6]): 1930 nM
Cc1c(-c2[nH]c3ccc(N4CCN(C(=O)[C@H](C)N(C)C)CC4)nc3c2C(C)C)cn2ncnc2c1C [Example 853]	–	–	–	–	–	–	IC50 (human TLR7; [4]): 0.51 nM; IC50 (human TLR8; [5]): 0.66 nM; IC50 (human TLR9; [6]): 9570 nM
Cc1cnc(CN(C)C2CCC(c3ccc4[nH]c(-c5cn6ncnc6c(C)c5C)c(C(C)C)c4n3)CC2)cn1 (stereo not drawn) [Example 414]	–	–	–	5.1 nM	12 nM	1760 nM	–
COc1cc(-c2[nH]c3ccc(C4CCC(N5CC6(CCOC6)C5)CC4)nc3c2C(C)C)cn2ncnc12 (stereo not drawn) [Example 1070]	–	–	–	–	–	–	IC50 (human TLR7; [4]): 0.54 nM; IC50 (human TLR8; [5]): 0.72 nM; IC50 (human TLR9; [6]): 845 nM
CCN(CC)CC(=O)N1CCN(c2ccc3[nH]c(-c4cn5ncnc5c(C)c4C)c(C(C)C)c3n2)CC1 [Example 871]	–	–	–	–	–	–	IC50 (human TLR7; [4]): 1.6 nM; IC50 (human TLR8; [5]): 5.1 nM; IC50 (human TLR9; [6]): 12700 nM
Cc1c(-c2[nH]c3ccc(N4CCC(N(C)C5CCC5)CC4)nc3c2C(C)C)cn2ncnc2c1C [Example 59]	1.3 nM	1.1 nM	2380 nM	–	–	–	–
Cc1c(-c2[nH]c3ccc(C4CN(C(=O)CN(C)C)CCO4)nc3c2C(C)C)cn2ncnc2c1C (stereo not drawn) [Example 663]	–	–	–	3.5 nM	9.9 nM	21100 nM	–
Cc1c(-c2[nH]c3ccc(C4CCC(N5CC(C)(O)C5)CC4)nc3c2C(C)C)cn2ncnc2c1C (stereo not drawn) [Example 1044]	–	–	–	–	–	–	IC50 (human TLR7; [4]): 4.1 nM; IC50 (human TLR8; [5]): 9.2 nM; IC50 (human TLR9; [6]): 3600 nM
Cc1cc(-c2[nH]c3ccc(-c4cnn(C5CCNCC5)c4)nc3c2C(C)C)cn2ncnc12 [Example 735]	–	–	–	25 nM	61 nM	262 nM	–
COc1cc(-c2[nH]c3cc(C)c(C4CCNCC4)nc3c2C(C)C)cn2ncnc12 [Example 523]	–	–	–	1.2 nM	147 nM	1470 nM	–
COc1cc(-c2[nH]c3ccc(N4CCN(CC#N)CC4)nc3c2C(C)C)cn2ncnc12 [Example 94]	1 nM	1.4 nM	9350 nM	–	–	–	–
COc1cc(-c2[nH]c3ccc(OC4CCC(N(C)C)CC4)nc3c2C(C)C)cn2ncnc12 (stereo not drawn) [Example 610, 4-((3-isopropyl-2-(8-methoxy-[1,2,4]triazolo[1,5-a]pyridin-6-yl)-1H-pyrrolo[3,2-b]pyridin-5-yl)oxy)-N,N-dimethylcyclohexan-1-amine]	–	–	–	1.5 nM	14 nM	1770 nM	–
COc1cc(-c2[nH]c3ccc(OC4CN(C)C4)nc3c2C(C)C)cn2ncnc12 [Example 596, 6-(3-isopropyl-5-((1-methylazetidin-3-yl)oxy)-1H-pyrrolo[3,2-b]pyridin-2-yl)-8-methoxy-[1,2,4]triazolo[1,5-a]pyridine]	–	–	–	13 nM	67 nM	3200 nM	–
COc1cc(-c2[nH]c3ccc(N4CC5(CN(CC(C)(C)O)C5)C4)nc3c2C(C)C)cn2ncnc12 [Example 1021]	–	–	–	–	–	–	IC50 (human TLR7; [4]): 4.3 nM; IC50 (human TLR8; [5]): 11 nM; IC50 (human TLR9; [6]): 5330 nM
Cc1c(-c2[nH]c3ccc(C4CCC(N5CC(O)C5)CC4)nc3c2C(C)C)cn2ncnc2c1C (stereo not drawn) [Example 1049]	–	–	–	–	–	–	IC50 (human TLR7; [4]): 1.6 nM; IC50 (human TLR8; [5]): 5.4 nM; IC50 (human TLR9; [6]): 2600 nM

Now from value to compound, other results behind:

IC50 (human TLR7; [1])	IC50 (human TLR8; [2])	IC50 (human TLR9; [3])	IC50 (human TLR7; [7])	IC50 (human TLR8; [8])	IC50 (human TLR9; [9])	SMILES	other results
–	–	–	32 nM	48 nM	> 50000 nM	Cc1c(-c2[nH]c3ccc(C4CN(CCS(C)(=O)=O)CCO4)nc3c2C(C)C)cn2ncnc2c1C (stereo not drawn) [Example 674]	–
–	–	–	323 nM	165 nM	18000 nM	CNC(=O)CN(C1CCC(c2ccc3[nH]c(-c4cn5ncnc5c(C)c4C)c(C(C)C)c3n2)CC1)C1COC1 (stereo not drawn) [Example 449]	–
56 nM	12 nM	21100 nM	–	–	–	Cc1c(-c2[nH]c3ccc(N4CC(NCC(=O)N(C)C)C4)nc3c2C(C)C)cn2ncnc2c1C [Example 22]	–
7.2 nM	19 nM	5510 nM	–	–	–	Cc1c(-c2[nH]c3ccc(C4CCC(N(C)C5CC5)CC4)nc3c2C(C)C)cn2ncnc2c1C (stereo not drawn) [Example 387]	–
2 nM	7.9 nM	537 nM	–	–	–	COc1cc(-c2[nH]c3ccc(C4CCC(N(C)Cc5cnc(C)cn5)CC4)nc3c2C(C)C)cn2ncnc12 (stereo not drawn) [Example 203]	–
0.71 nM	0.97 nM	297 nM	–	–	–	CC(C)c1c(-c2cn(C)c3ncccc23)[nH]c2ccc(C3CCC(NCC4(S(C)(=O)=O)CC4)CC3)nc12 (stereo not drawn) [Example 238]	–
–	–	–	2 nM	2.9 nM	1700 nM	COc1cc(-c2[nH]c3ccc(C4CCC(NCC5(C)COC5)C4)nc3c2C(C)C)cn2ncnc12 (stereo not drawn) [Example 711]	–
–	–	–	2.6 nM	495 nM	144 nM	Cc1cc(-c2[nH]c3cc(C)c(C4CCNCC4)nc3c2C(C)C)cc(C)n1 [Example 522]	–
–	–	–	2.3 nM	5.5 nM	13900 nM	COc1cc(-c2[nH]c3ccc(C4CN(C)CCO4)nc3c2C(C)C)cn2ncnc12 (stereo not drawn) [Example 661]	–
8.5 nM	20 nM	389 nM	–	–	–	CC(C)c1c(-c2cc(CO)c3ncnn3c2)[nH]c2ccc(C3CCC(NCc4c[nH]nn4)CC3)nc12 (stereo not drawn) [Example 218]	–
–	–	–	0.18 nM	48 nM	771 nM	Cc1cc2[nH]c(-c3cc(C)c4ncnn4c3)c(C(C)C)c2nc1C1CCNCC1 [Example 525]	–
0.98 nM	2.9 nM	1330 nM	–	–	–	COc1cc(-c2[nH]c3ccc(C4CCC(NCc5cnco5)CC4)nc3c2C(C)C)cn2ncnc12 (stereo not drawn) [Example 204]	–
–	–	–	7.4 nM	10 nM	1620 nM	COc1ncc(CN(C)C2CCC(c3ccc4[nH]c(-c5cn6ncnc6c(C)c5C)c(C(C)C)c4n3)CC2)cn1 (stereo not drawn) [Example 395]	–
–	–	–	7.9 nM	18 nM	4500 nM	COc1cc(-c2[nH]c3ccc(C4CC(N(C)CC(=O)N(C)C)C4)nc3c2C(C)C)cn2ncnc12 (stereo not drawn) [Example 627]	–

Reference: patent US10544143B2, “4-azaindole compounds” (BRISTOL-MYERS SQUIBB COMPANY, priority 2017, dated 2020)
